Experimental data from patent US20080260753A1, “Mouse Models of Crohn's Disease and a Method to Develop Specific Therapeutics” (priority 2004, published 2008).

Legend:
[1] = test system: BMDMs from WT and Nod2^2939iC (m/m) mice; test: Cytokine secretion by stimulated BMDMs (ELISA, immunoblotting); format: cell-based, mouse
Description: Macrophage culture and treatment. BMDMs were cultured as described (Park et al., Science 297: 2048, 2002). Confluent cultures were treated with different bacterial components including MDP (Bachem), synthetic peptidoglycan-Pam3Cys (InvivoGen), natural gram positive peptidoglycan (from S. aureus, Sigma), LPS (from E. coli, Sigma), and CpG-DNA (TIB MOLBIOL). At the indicated time points the cells or culture supernatants were collected and used to prepare cytoplasmic and nuclear protein extracts or total cellular RNA.
Gene expression analyses. Protein lysates were prepared from tissues and cultured macrophages, separated by SDS-polyacrylamide gel electrophoresis, transferred to Immobilon membranes (Millipore) and analyzed by immunoblotting. Total cellular RNA was extracted using TRIZOL (Invitrogen). cDNA was generated using SuperScript II (Invitrogen) and the amounts of the different mRNAs were measured by real-time PCR using GAPDH mRNA for normalization. Primer sequences are available upon request. Cytokine levels were measured using enzyme linked immunoadsorbent assays (ELISA).

WT and Nod2^2939iC mice = test: DSS colitis with IL-1RA or antibiotic treatment, body weight, survival and histological scoring; format: in vivo; conditions: for mortality: 3% DSS for 6 days, by 10 days after DSS exposure
Description: DSS colitis, IL-1RA treatment and histological scoring. Mice (8-12 weeks old) were given DSS (ICN Biomedicals Inc.) in the drinking water for 6 days as indicated and placed on regular water thereafter. When indicated, mice were also treated with neomycin sulfate (1.5 g/L) and metronidazole (1.5 g/L) (both from Sigma) in the drinking water or injected i.p. with either IL-1RA (Kineret®, Amgen Inc.) (100 mg/kg) in PBS or PBS alone once daily throughout the experiment. […] Histological scoring of fixed (10% formaldehyde) and sectioned (paraffin embedded) tissue was performed in a blinded manner. The scores were: 0=normal, 1=moderate mucosal inflammation without ulcer, 2=severe mucosal inflammation with ulcer (<1 mm) or no ulcer, 3=severe mucosal inflammation with ulcer (1-3 mm), 4=severe mucosal inflammation with ulcer (>3 mm).

For `CC(=O)N[C@H]1C(O)O[C@H](CO)[C@@H](O)[C@@H]1O[C@H](C)C(=O)N[C@@H](C)C(=O)N[C@H](CCC(=O)O)C(N)=O` (mixture of isomers) [MDP, muramyl dipeptide], the IL-6 secretion ([1]; BMDMs stimulated with MDP) was “neither IL-6 nor TNFα were secreted” and the “release of mature IL-1β” value ([1]; Nod2^2939iC macrophages, MDP 1 μg/ml, 24 hrs) was “stimulated release of mature IL-1β”.
“IL-1RA: IL-1 receptor antagonist (IL-1RA) (Kineret®, Amgen Inc.)” was tested, and the “Average body weight loss” value (WT and Nod2^2939iC mice; 3% DSS in drinking water for 6 days, IL-1RA 100 mg/kg i.p. once daily from the start of DSS exposure, WT and Nod2^2939iC mice) was “improved”, the “differences in weight loss and inflammatory score between the genotypes” value (WT and Nod2^2939iC mice; 3% DSS plus IL-1RA 100 mg/kg/day, WT vs Nod2^2939iC mice) was “abolished” and the histological score (WT and Nod2^2939iC mice; 11 days after initiation of 3% DSS, IL-1RA 100 mg/kg/day i.p., WT and Nod2^2939iC mice) was “improved”. For the same compound, the “colon histology: inflammation and ulceration compared to DSS alone” value (WT and Nod2^2939iC mice; 11 days after initiation of DSS plus IL-1RA (100 mg/kg/day), WT and Nod2^2939iC mice) was “decreased inflammation and ulceration”.
dextran sodium sulfate [DSS] was tested, and the mortality (WT and Nod2^2939iC mice; Nod2^2939iC mice (n=16)) was 37.5%, the mortality (WT and Nod2^2939iC mice; WT mice (n=19)) was 0% and the “time to death after DSS administration” value (WT and Nod2^2939iC mice; 6% DSS without oral antibiotics, WT and Nod2^2939iC mice) was ≤ 9 days.
